Measurements published in ChEMBL document CHEMBL3507680, “University of Dundee, Gates Library screen for HepG2 cell viability”.

Assay: Human HepG2 cell viability assay in 384 well format
Format: toxicity, cell-based
Set-up: dose 125 nL, time 70.5 hour; cytotoxicity at 70.5 h: concentration not given beside the values
Details: HepG2 cells, read-out: Inhibition

Compound | cytotoxicity at 70.5 h [%]
CC(C)OCCN1CCC(N2CCN(C)C2=O)CC1 | -2.99
Cc1ccc(C)c(NC(=O)Nc2c[nH]c(=O)[nH]c2=O)c1 | -27.8
O=C(c1ccco1)N1CCCC2(CCN(CCN3CCCC3)C2=O)C1 (configuration not stated) | -3.97
Nc1cc(N2CCOCC(Cc3ccc4[nH]ccc4c3)C2)ncn1 (configuration not stated) | -0.988
CN(C)Cc1nn(C)c2c1CN(S(=O)(=O)c1ccccc1F)C2 | -0.163
COc1ccc(CN(C)C(=O)CN2CC(n3cc(C)cn3)C2)cc1F | -2.77
CN1CCC(N2CCC(CN(Cc3ccncc3)C3CCC3)CC2)CC1 | -4.29
Cc1cn2nc(N3CCCCC3Cn3cccn3)sc2n1 (configuration not stated) | 22.5
CN(C)c1ccccc1C(=O)N1C[C@@H](CN2CCOCC2)[C@@H](CO)C1 | -3.02
O=C(CCc1ccc(-n2cnnn2)cc1)Nc1nncs1 | -8.9
O=C(c1ccccc1-n1cccn1)N1CCCN(c2cccnn2)CC1 | -21.8
Cc1cc(-c2cnc(N3CCOCC3)nc2-c2ccc(C)s2)on1 | -3.57
c1ccc(-c2nc(CCNCc3ccccn3)co2)cc1 | -1.18
Cc1ccc(OCC(O)CN(C)CC(=O)NC(C)C)c(C)c1 (configuration not stated) | 3.84
Cc1cc(C(=O)NCC(c2ccsc2)N(C)C)no1 (configuration not stated) | -5.66
c1ccc2oc(C3CCN(Cc4ncon4)CC3)nc2c1 | -0.981
COC[C@H]1CNC(=O)[C@@H]2CCN(Cc3ccc(F)cc3)CC[C@H]12 | -1.94
OC1(CN2CCCC2)COCCN(c2ncnc3[nH]ccc23)C1 (configuration not stated) | -3.06
Cn1cc(C(=O)N2CC[C@H](N3CCOCC3)[C@H](CCCO)C2)cn1 | -12.1
Cc1nc(N)ncc1C(=O)N1CCCC(CCc2ccc(F)c(F)c2)C1 (configuration not stated) | -16.6
CN(C(=O)NCc1ccsc1)C1CCN(c2ccccc2)C1=O (configuration not stated) | 0.0689
O=C1C(Nc2ccc3nccnc3n2)CCN1c1ccccc1F (configuration not stated) | -9.82
O=C(c1ccno1)N1CCOC[C@H](Oc2ccccc2)C1 | -3.41

Compound | cytotoxicity at 70.5 h [%]
CC(O)CNc1c(NCc2ccco2)c(=O)c1=O (configuration not stated) | -9.21
CN1CCCN(c2nccc(-c3cc(C(=O)O)ccn3)n2)CC1 | 24.6
O=C(CCc1c[nH]cn1)N1CC[C@@H](c2ccc3ccccc3c2)[C@H](O)C1 | -8.55
c1ccc(COC[C@]23COC[C@H]2CN(c2ncccn2)C3)nc1 | -11.9
COc1nc2c(cc1C(=O)N1C[C@H](N)C[C@H]1C(=O)NC(C)C)CCC2 | -4.1
COCCNc1nc(C2CCCC2)nc2c1CCNCC2 | 2.05
CN(Cc1cnc2ccccc2c1)C(=O)C(c1ccccc1F)N(C)C (configuration not stated) | -10.3
CCOc1ccc2[nH]c(=O)c(CN3CCC(O)CC3)cc2c1 | -7.88
Cn1cc(CCCN2CCN(C(=O)c3cccc(O)c3)CC2)cn1 | -3.56
Cc1cc(N(C)C)nc(C2(C)CCCN2C(=O)c2ccn(C)n2)n1 (configuration not stated) | -9.18
COCCn1ccc2c(C(=O)NC(C)C)cccc21 | -12.3
CN(CC1CC1)S(=O)(=O)c1ccc(C(F)(F)F)cc1C#N | -11.7
Cc1ccc(C(=O)NCC2CCN(C)c3ccccc32)c(=O)[nH]1 (configuration not stated) | -2.94
Cc1ccccc1OCCCC(=O)NCc1ccnc(O)c1 | -11.5
Cc1ccc(C2CN(C(=O)c3ccn(C)c(=O)c3)CCO2)nc1 (configuration not stated) | -7.64
COCCN1CCC(Cc2cnc(-c3ccccc3C(=O)O)cn2)CC1 | 8.51
O=C(c1ccnnc1)N1CCC2(CC1)CCN(C(=O)c1cccnc1)C2 | -0.196
COCc1nn(Cc2ccc(Cl)s2)c(=O)o1 | -13.7
CN(C)C1CCCN(Cc2cccc(Cn3cccn3)c2)CC1 (configuration not stated) | -1.58
CCN(CCO)C[C@@H]1CN(c2cccc(C(F)(F)F)n2)C[C@@H]1CO | -11.5
NS(=O)(=O)c1ccc(F)c(C(=O)NCCSC2CCCCC2)c1 | -9.09
COc1cc(C(=O)NS(=O)(=O)c2cccc(C#N)c2)cc(OC)c1Br | -6.73
O=C(NCc1ccccc1)N1C[C@H]2C[C@H](C(=O)N3CCCC3)[C@@H](C1)O2 | -5.41

Compound | cytotoxicity at 70.5 h [%]
CCS(=O)(=O)N1CCc2onc(CNc3ncccn3)c2C1 | -8.6
O=C(Nc1ccc(-c2cnc(NCCO)nc2)cc1)[C@@H]1CCCCN1 | -3.46
Cn1cc(C(=O)N[C@H]2CN(S(C)(=O)=O)[C@@H]3CCCO[C@H]23)cn1 | -9.45
Cc1nc(N)cc(N2CCCC(COc3cccc(F)c3)C2)n1 (configuration not stated) | -16.1
O=C(CCn1ccc2ccccc21)N1CCC(Nc2cccnc2)CC1 | -1.56
O=C1NCCC12CN(CC1CC1)CC21CCNCC1 (configuration not stated) | -6.52
CSc1nnc(C2CCN(C(=O)N3CCCC3)CC2)n1C(C)C | 2.59
Nc1nc(CN2CCOC(Cn3cncn3)C2)nc2ccccc12 (configuration not stated) | -3.11
COC1CN(C(=O)Cc2cccs2)CCC(=O)N(C)c2ccccc21 (configuration not stated) | 2.17
Cc1nc(C2CCCNC2)cc(N(Cc2c(C)nn(C)c2C)C2CC2)n1 (configuration not stated) | -0.0304
COc1ccc(CNCCC(=O)N2CCc3sccc3C2)cc1O | 5.44
C1CC(CN2C[C@H]3CC[C@@H]2CN(Cc2noc(C4CCCC4)n2)C3)C1 | 22.2
CC(=O)c1c(C)nn(CC(=O)N2Cc3cnc(C(C)(C)C)nc3C2)c1C | -5.26
CC(C)c1nnc2n1CCN(C(=O)Cc1csc(C(C)(C)C)n1)C2 | -8.69
CC(C)C(C(=O)N1CCC2(CC1)CN(C)C(=O)O2)c1ccccc1 (configuration not stated) | -8.69
CN1CCC(NC(=O)Nc2cnn(-c3ccccc3Cl)c2)CC1 | -5.23
CC(C)S(=O)(=O)CC(=O)N(Cc1ccsc1)c1ccccc1 | -7.19
CNS(=O)(=O)CC(=O)N(C1CCCC1)C1CC1 | -12.4
CC(C)c1nc2c(n1C)CCN(CC(=O)Nc1cccnc1)C2 | -9.65
OC[C@@H]1[C@@H](c2ccccc2)CN2CCN(c3ccccn3)C[C@H]12 | -3.64
CCc1ncc2c(n1)CN(C(=O)COC)C2 | -4.18
O=C(NCC1CC2(CO1)CN(c1nncs1)C2)C1CCC1 (configuration not stated) | -3.65
CCN(C(=O)CS(=O)(=O)c1cc(OC)c(OC)cc1C)C1CC1 | -8.45

Compound | cytotoxicity at 70.5 h [%]
Cc1ccc2c(n1)N(Cc1cccnc1)CCN(C1CCOCC1)C2 | 2.27
Cc1cncc(C(=O)N2CC[C@@H]3[C@H]2CCC(=O)N3CCN(C)C)c1 | 2.21
CN1CCC(CCNC(=O)N2CCN(Cc3ccon3)CC2)CC1 | 14.9
CCc1nc(CN2CCN(C(=O)C3(C#N)CCCC3)CC2)cs1 | -2.5
O=C1CN(Cc2ccc3ccccc3n2)CCN1C1CCCC1 | -1.73
Cc1cc(I)c2c(c1)C(=O)C(CN1CCCC1)(CN1CCCC1)CO2 | -0.395
CSC1(CNC(=O)CCc2ccc(Cl)s2)CCOCC1 | -5.64
CCOc1ccccc1OC1CCN(C(=O)c2nc(=O)[nH][nH]2)CC1 | 27.9
Cc1cc(CN(C)C(=O)NC2CCN(Cc3ccccn3)CC2)no1 | 1.36
CC(=O)NCCNCc1cn(CCN2CCSCC2)nc1C | -5.7
COCCN1CCC(c2nc3ccc(N4CCCC4)cn3n2)CC1 | -8.32
COCC(=O)N1CCC2(CC1)CN(c1ncccn1)CCO2 | -10.1
CN1CCN(C(=O)NCCNc2ncccn2)Cc2ccccc21 | -14
COCCN1CCC(c2cncc(-c3cccc(Cl)c3)n2)CC1 | -5.78
COc1ccc(C2CC(=O)Nc3nc(N4CCOCC4)sc32)c(OC)c1 (configuration not stated) | -21.3
CCC(C)(C)NC(=O)CSCc1ccc(S(=O)(=O)N(C)C)o1 | -9.79
O=C1[C@H]2CN(S(=O)(=O)C3CC3)C[C@H]2CN1Cc1cccnc1 | -8.9
CC(C)c1csc(C2CCCN(C(=O)Cn3ccccc3=O)C2)n1 (configuration not stated) | 23.3
CC(C)N1CCC(c2cccc(C(=O)N(C)C)n2)CC1 | 24.4
CC(C)CC(O)C1CCN(C(=O)c2ccc(C(F)(F)F)nc2O)CC1 (configuration not stated) | -5.89
CCc1[nH]c2c(CNc3cncc(C(=O)N(C)C)n3)cc(F)cc2c1C | 4.01
Cc1ncc(CNC(=O)N(C)Cc2ccc([S+](C)[O-])cc2)s1 (configuration not stated) | -4.15
Cc1n[nH]c(CCC(=O)N2CCOC(Cc3ccc(F)cc3)C2)c1C (configuration not stated) | 10.5

Compound | cytotoxicity at 70.5 h [%]
CN(C)c1ccc(CNCc2ccc(N3CCOCC3)cc2)cn1 | -9.01
Cc1cnn(CCNCC(O)COc2c(Cl)cccc2Cl)c1 (configuration not stated) | -4.22
Cc1nc(C)c(C(C)NCc2c(C(C)C)nn(C)c2N(C)C)s1 (configuration not stated) | -0.665
CC(C)c1ncc2c(n1)CN(Cc1nc(Cc3ccccc3)no1)CC2 | -24.3
Cc1ccc(C(=O)N(C)Cc2ccc3c(c2)OCO3)c(=O)[nH]1 | -4.29
Cc1cc2ccccc2n1CC(=O)Nc1ccnn1CC1CCOC1 (configuration not stated) | -14.7
Cc1n[nH]cc1CNC(=O)[C@H]1CCCCN1C(=O)OC(C)(C)C | 8.82
CNc1ncc2c(n1)CN(CCc1ccccc1)C2=O | -12.7
Cc1nc(C)c(C(=O)N2CCc3nnc(C4CCCCN4C)n3CC2)o1 (configuration not stated) | 0.605
Cn1ncc(Cl)c1C(=O)N1CCC(c2nnsc2S(C)(=O)=O)CC1 | 7.94
CC1COCCN1Cc1noc(C(C)(C)C)n1 (configuration not stated) | 19.8
O=C(CN1CCCC(Cn2cncn2)C1)NCc1ccccc1F (configuration not stated) | -4.63
Cc1cccc(N2CCC3(CCCN(C(=O)c4cccnc4)C3)C2)n1 (configuration not stated) | 18.7
Cc1noc(C)c1CN(C)C(=O)C1(NS(C)(=O)=O)CCCCC1 | -0.856
CCN(C(=O)C1Cc2cc(Cl)ccc2O1)C1CC1 (configuration not stated) | -2.35
COc1cnc(N2CCC(Oc3ccccc3OC)(C(=O)O)CC2)nc1 | -3.07
CC(C)c1nnsc1CN1CCc2[nH]nc(-c3ccc(Cl)cc3)c2C1 | 9.53
CC(O)CN1CCC(CNCc2ccccc2Br)CC1 (configuration not stated) | -1.26
CCN1CCn2c(C)cnc2C12CCN(C(=O)CC(C)C)CC2 | -2.3
COCCC(=O)N1CCCC2(CCCN2Cc2ccccc2F)C1 (configuration not stated) | -107
